Source: publication PMC4669708 (Cell Death & Disease, 2015)

Legend:
HT-29 MLKL S358D cells = experiment: Cell death driven by doxycycline-induced MLKL S358D expression; type: cell-based, human; settings: 2 μg/ml doxycycline overnight; 10 μM NSA, 0.5 μM ponatinib
Description: (§1) Cells were seeded in 12-, 24- or 96-well plates at proper cell density. For necroptosis or apoptosis assays, cells were incubated with the indicated compound combinations at concentrations stated for 14–24 h. Smac mimetic and z-VAD-FMK were added 30–60 min before treatment with TNF-α, FasL or TRAIL. Cell viability was determined using CellTiter Glo Luminescent Cell Viability Assay (Promega, Fitchburg, WI, USA) according to the manufacturer's instructions. Luminescence was recorded with a SpectraMax M5Multimode plate reader (Molecular Devices, Sunnyvale, CA, USA). For flow cytometry-based determination of viability, cells were harvested, collected by centrifugation, washed once and resuspended in staining buffer (1 × PBS, 10% FBS). Cells were incubated with 0.5 μg/ml PI for 10 min at room temperature (RT) in the dark. Flow cytometric analyses were performed on an LSR Fortessa (BD Biosciences) and analyzed with FlowJo software version 7.6.3 (Tree Star Inc, Ashland, OR, USA). Cell size was evaluated by forward scatter. PI-negative normal-sized cells were considered living and data were normalized to values of untreated controls. For detection of apoptosis, cells were resuspended in Annexin V Binding Buffer (BioLegend, San Diego, CA, USA) and stained with 0.5 μg/ml PI and Alexa Fluor 647 Annexin V (BioLegend) according to manufacturer's instructions.

HT-29 cells [1] = experiment: TRAIL- or FasL-induced necroptosis with Smac mimetic and z-VAD; type: cell-based, human; settings: 0.5 μM ponatinib, 5 μM pazopanib
Description: as §1

recombinant RIPK1 = molecular target: T1, recombinant RIPK1 (Homo sapiens, UniProt Q13546); experiment: Recombinant kinase assay; type: biochemical; settings: 50 μM ATP; Supplementary Figure 4b
T1 construct: purchased Signalchem R07-10G
Description: (§2) Recombinant RIPK1 or RIPK3 protein was incubated with the substrate MBP in kinase assay buffer (40 mM Tris-HCl pH 7.5, 10 mM MgCl2 and 1 mM DTT) in presence of 50 μM ATP, 5 μCi [γ-32 P]ATP and the indicated inhibitors in a total volume of 20 μl. […] The terminated reactions were spotted onto a SAM2 Biotin Capture membrane (Promega) and further processed according to the manufacturer's instructions. […] Data were normalized to a DMSO-treated control sample. For autoradiography, the reactions were stopped by addition of 5 μl 4x Laemmli buffer and incubated for 5 min at 95 °C.

3T3-SA cells = experiment: TNF-α/z-VAD (TZ)-induced necroptosis; type: cell-based, murine; settings: Supplementary Figures 3a, b
Description: as §1

HT-29 cells [2] = experiment: TNF-α/Smac mimetic/z-VAD-FMK (TSZ)-induced necroptosis, cell viability; type: cell-based, human; settings: for rescue of TSZ-induced necroptotic cell death: compounds 1 μM, 20 ng/ml TNF-α, 500 nM Smac mimetic, 20 μM z-VAD overnight
Description: as §1, with “controls.” for “controls. For detection of apoptosis, cells were resuspended in Annexin V Binding Buffer (BioLegend, San Diego, CA, USA) and stained with 0.5 μg/ml PI and Alexa Fluor 647 Annexin V (BioLegend) according to manufacturer's instructions.”

[3] = test system: FADD-deficient Jurkat cells; experiment: TNF-α-induced necroptosis, cell viability (CellTiter Glo); type: cell-based, human; settings: for EC50: CellTiter Glo, read-out: EC50 for inhibiting necroptosis; for prevention of necroptotic cell death: dose range, Figure 2a, b
Description: as §1, with “controls.” for “controls. For detection of apoptosis, cells were resuspended in Annexin V Binding Buffer (BioLegend, San Diego, CA, USA) and stained with 0.5 μg/ml PI and Alexa Fluor 647 Annexin V (BioLegend) according to manufacturer's instructions.”
The compounds were transferred into drug plates by acoustic droplet ejection using an Echo 520 liquid handler (LABCYTE, Sunnyvale, CA, USA). Necroptosis was induced in FADD-deficient Jurkat cells by addition of 10 ng/ml TNF-α immediately before seeding onto drug plates at a density of 1x10^4 cells/well. After 16 h incubation, cell viability was determined using CellTiter Glo Luminescent Cell Viability Assay according to manufacturer's instructions. Data analysis was performed by calculating a percentage of control to normalize for variability across different plates. The signal for the negative control DMSO wells was set to 0%, whereas the wells containing the positive control Nec-1 were put to 100% for each plate individually.

Jurkat E6.1 cells = experiment: FasL-induced apoptosis, cell viability; type: cell-based; settings: 100 ng/ml human FasL, 24 h; 0.5 μM ponatinib, 5 μM pazopanib
Description: as §1

RIPK3 = RIPK3 (Homo sapiens, UniProt Q9Y572); experiment: Recombinant kinase assay; type: biochemical; design: purchased Signalchem R09-10G
Description: as §2

Sequence of RIPK3 (Q9Y572 whole entry): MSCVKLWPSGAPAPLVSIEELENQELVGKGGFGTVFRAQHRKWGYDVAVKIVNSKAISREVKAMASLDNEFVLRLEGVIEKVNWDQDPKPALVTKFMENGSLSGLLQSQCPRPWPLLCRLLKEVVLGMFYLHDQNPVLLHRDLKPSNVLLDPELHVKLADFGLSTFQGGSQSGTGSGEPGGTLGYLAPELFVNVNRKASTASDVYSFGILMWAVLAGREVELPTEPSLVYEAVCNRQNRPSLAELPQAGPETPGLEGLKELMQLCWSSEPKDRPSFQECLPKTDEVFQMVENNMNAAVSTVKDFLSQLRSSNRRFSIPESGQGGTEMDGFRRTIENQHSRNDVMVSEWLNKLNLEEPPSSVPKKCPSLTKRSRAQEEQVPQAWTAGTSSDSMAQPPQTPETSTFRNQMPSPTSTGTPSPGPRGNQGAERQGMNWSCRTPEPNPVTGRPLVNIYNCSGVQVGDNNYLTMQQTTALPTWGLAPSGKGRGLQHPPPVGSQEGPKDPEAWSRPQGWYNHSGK
T1 sequence (Q13546 1-327 limits assumed): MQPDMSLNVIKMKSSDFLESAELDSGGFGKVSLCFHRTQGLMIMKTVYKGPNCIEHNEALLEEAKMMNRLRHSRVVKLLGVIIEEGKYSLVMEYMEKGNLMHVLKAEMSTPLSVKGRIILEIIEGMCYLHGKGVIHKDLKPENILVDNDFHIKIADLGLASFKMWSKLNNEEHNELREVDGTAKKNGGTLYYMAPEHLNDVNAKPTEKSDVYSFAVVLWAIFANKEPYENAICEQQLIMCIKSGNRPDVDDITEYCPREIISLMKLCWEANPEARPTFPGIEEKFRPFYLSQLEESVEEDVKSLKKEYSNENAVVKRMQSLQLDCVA

5-[[4-[(2,3-dimethyl-2H-indazol-6-yl)methylamino]-2-pyrimidinyl]amino]-2-methyl-b enzenesulfonamide [pazopanib]
block of cell death driven by MLKL S358D expression (HT-29 MLKL S358D cells): did not block MLKL S358D-driven necroptosis
block of TRAIL-induced cell death (HT-29 cells [1]; 200 ng/ml TRAIL + 500 nM Smac mimetic + 20 μM z-VAD): similarly blocked
block of FasL-induced necroptotic cell death (HT-29 cells [1]; 200 ng/ml human FasL + 500 nM Smac mimetic + 20 μM z-VAD): similarly blocked
RIPK1 kinase activity (MBP phosphorylation) (recombinant RIPK1): inhibiting RIPK1 kinase activity
block of necroptotic cell death (3T3-SA cells): capable of blocking necroptotic cell death with comparable potency
EC50 (HT-29 cells [2]; TSZ treatment, read-out: EC50 (necroptosis block)): 873 nM
rescue of TSZ-induced necroptotic cell death (HT-29 cells [2]): rescued
EC50 ([3]; 10 ng/ml TNF-α overnight): 254 nM
rescue of cell viability in drug screen ([3]; 0.5 and 1.5 μM, 10 ng/ml TNF-α overnight): robustly rescued cell viability at both concentrations
inhibition of apoptotic cell death triggered by FasL (Jurkat E6.1 cells): none of the drugs inhibited apoptotic cell death

COc1nccnc1NS(=O)(=O)c1ccc(NC(=O)/C=C/c2ccc([N+](=O)[O-])s2)cc1 [NSA, necrosulfonamide]
block of cell death driven by MLKL S358D expression (HT-29 MLKL S358D cells): could be blocked

CN1C(=O)NC(Cc2c[nH]c3c(Cl)cccc23)C1=O (stereo not shown) [Nec-1s, 7-Cl-O-Nec-1]
RIPK3 autophosphorylation (RIPK3; autoradiography, Supplementary Figure 4c): showed no effect
EC50 ([3]; 10 ng/ml TNF-α overnight): 238 nM

COc1cc(O)c2c(c1)/C=C/C[C@H](O)[C@H](O)C(=O)/C=C\C[C@H](C)OC2=O [TAK1 inhibitor]
protection to necroptosis ([3]; Supplementary Figures 6b, c): not able to confer protection to necroptosis

COc1cc(Nc2c(C#N)cnc3cc(OCCCN4CCN(C)CC4)c(OC)cc23)c(Cl)cc1Cl [bosutinib]
rescue of TSZ-induced necroptotic cell death (HT-29 cells [2]): neither of the other four BCR-ABL inhibitors nor vandetanib did
prevention of necroptotic cell death ([3]; 10 ng/ml TNF-α overnight): none of the other drugs prevented necroptotic cell death

Cc1nc(Nc2ncc(C(=O)Nc3c(C)cccc3Cl)s2)cc(N2CCN(CCO)CC2)n1 [dasatinib]
RIPK3 kinase activity (MBP phosphorylation) (RIPK3; 50 μM ATP, Figure 4e inhibitors at 10 μM): interfered with RIPK3 activity
rescue of TSZ-induced necroptotic cell death (HT-29 cells [2]): neither of the other four BCR-ABL inhibitors nor vandetanib did
prevention of necroptotic cell death ([3]; 10 ng/ml TNF-α overnight): showed a modest effect but only at drug concentrations high enough to induce toxicity

Cc1ccc(NC(=O)c2ccc(CN3CCN(C)CC3)cc2)cc1Nc1nccc(-c2cccnc2)n1 [imatinib]
rescue of TSZ-induced necroptotic cell death (HT-29 cells [2]): neither of the other four BCR-ABL inhibitors nor vandetanib did
prevention of necroptotic cell death ([3]; 10 ng/ml TNF-α overnight): none of the other drugs prevented necroptotic cell death

Cc1cn(-c2cc(NC(=O)c3ccc(C)c(Nc4nccc(-c5cccnc5)n4)c3)cc(C(F)(F)F)c2)cn1 [nilotinib]
rescue of TSZ-induced necroptotic cell death (HT-29 cells [2]): neither of the other four BCR-ABL inhibitors nor vandetanib did
prevention of necroptotic cell death ([3]; 10 ng/ml TNF-α overnight): none of the other drugs prevented necroptotic cell death

COc1cc2c(Nc3ccc(Br)cc3F)ncnc2cc1OCC1CCN(C)CC1 [vandetanib]
rescue of TSZ-induced necroptotic cell death (HT-29 cells [2]): neither of the other four BCR-ABL inhibitors nor vandetanib did
prevention of necroptotic cell death ([3]; 10 ng/ml TNF-α overnight): did not confer protection
